Measured values from US4864023A, “Pyrido(3,2,1-IJ)-1,3,4-benzoxadiazine derivatives” (priority 1988, dated 1989).
≈ marks a conversion by molar mass, not a printed value.

Tests used:
Assay in all cases: in vitro antibacterial activity, standard agar dilution method
Assay type in all cases: cell-based
[1] = system: Bacillus subtilis PCI 219; conditions: PCI219, aerobic, read-out: minimum inhibitory concentration (MIC)
[2] = system: Staphylococcus aureus FDA 209P JC-1; conditions: FDA209P; Staphylococcus aureus FDA 209P JC-1; aerobic; agar dilution; read-out: minimum inhibitory concentration (MIC)
[3] = system: Staphylococcus aureus NR 2855; conditions: NR2855; Staphylococcus aureus NR 2855; aerobic; agar dilution; read-out: minimum inhibitory concentration (MIC)
[4] = system: Staphylococcus aureus Smith; conditions: Staphylococcus aureus Smith; aerobic; agar dilution; read-out: minimum inhibitory concentration (MIC)
[5] = system: Staphylococcus epidermidis IFO 12993; conditions: IFO12993, aerobic, read-out: minimum inhibitory concentration (MIC)
[6] = system: Staphylococcus epidermidis NR 2942; conditions: NR2942, aerobic, read-out: minimum inhibitory concentration (MIC)
[7] = system: Enterococcus faecalis NR 2943; conditions: NR2943, aerobic, read-out: minimum inhibitory concentration (MIC)
[8] = system: Alcaligenes faecalis IFO 13111; conditions: IFO13111, aerobic, read-out: minimum inhibitory concentration (MIC)
[9] = system: Citrobacter freundii IFO 12681; conditions: IFO12681, aerobic, read-out: minimum inhibitory concentration (MIC)
[10] = system: Enterobacter aerogenes NR 2945; conditions: Klebsiella aerogenes, NR2945, aerobic, read-out: minimum inhibitory concentration (MIC)
[11] = system: Enterobacter cloacae NR 2946; conditions: NR2946, aerobic, read-out: minimum inhibitory concentration (MIC)
[12] = system: Escherichia coli NIHJ JC-2; conditions: NIHJJC2, aerobic, read-out: minimum inhibitory concentration (MIC)
[13] = system: Klebsiella pneumoniae FDA PCI 602; conditions: FDAPCI602, aerobic, read-out: minimum inhibitory concentration (MIC)
[14] = system: Bordetella bronchiseptica ATCC 4617; conditions: ATCC4617, aerobic, read-out: minimum inhibitory concentration (MIC)
[15] = system: Proteus rettgeri ATCC 14505; conditions: Providencia rettgeri, ATCC14505, aerobic, read-out: minimum inhibitory concentration (MIC)
[16] = system: Proteus vulgaris OX19 ATCC 6898; conditions: ATCC6898, aerobic, read-out: minimum inhibitory concentration (MIC)
[17] = system: Pseudomonas aeruginosa A3; conditions: aerobic, read-out: minimum inhibitory concentration (MIC)
[18] = system: Pseudomonas aeruginosa NR 2950; conditions: NR2950, aerobic, read-out: minimum inhibitory concentration (MIC)
[19] = system: Pseudomonas stutzeri IFO 12695; conditions: Stutzerimonas stutzeri, IFO12695, aerobic, read-out: minimum inhibitory concentration (MIC)
[20] = system: Serratia marcescens IFO 12648; conditions: IFO12648, aerobic, read-out: minimum inhibitory concentration (MIC)
[21] = system: Salmonella typhimurium IFO 12529; conditions: Salmonella enterica, aerobic, read-out: minimum inhibitory concentration (MIC)
Escherichia coli NR 2630 = conditions: NR2630; Escherichia coli NR 2630; aerobic; agar dilution; read-out: minimum inhibitory concentration (MIC)

Row | SMILES | MIC [1] [µg/mL] | MIC [2] [µg/mL] | MIC [3] [µg/mL] | MIC [4] [µg/mL] | MIC [5] [µg/mL] | MIC [6] [µg/mL] | MIC [7] [µg/mL] | MIC [8] [µg/mL] | MIC [9] [µg/mL] | MIC [10] [µg/mL] | MIC [11] [µg/mL] | MIC [12] [µg/mL] | MIC [13] [µg/mL] | MIC [14] [µg/mL] | MIC [15] [µg/mL] | MIC [16] [µg/mL] | MIC [17] [µg/mL] | MIC [18] [µg/mL] | MIC [20] [µg/mL] | MIC [21] [µg/mL] | also measured
1 | CN1COc2c(N3CCN(CCO)CC3)c(F)cc3c(=O)c(C(=O)O)cn1c23 [Example 15] | 0.05 (≈ 0.127 µM) | 0.78 (≈ 1.99 µM) | 0.78 (≈ 1.99 µM) | 0.39 (≈ 0.994 µM) | 0.78 (≈ 1.99 µM) | 0.78 (≈ 1.99 µM) | 6.25 (≈ 15.9 µM) | 3.13 (≈ 7.98 µM) | 0.05 (≈ 0.127 µM) | 0.05 (≈ 0.127 µM) | 0.1 (≈ 0.255 µM) | 0.1 (≈ 0.255 µM) | 0.39 (≈ 0.994 µM) | 0.78 (≈ 1.99 µM) | 0.78 (≈ 1.99 µM) | 0.025 (≈ 0.0637 µM) | 0.78 (≈ 1.99 µM) | 3.13 (≈ 7.98 µM) | 0.39 (≈ 0.994 µM) | 0.05 (≈ 0.127 µM) | MIC [19]: 0.05 µg/mL (≈ 0.127 µM)
2 | CC(=O)CN1CCN(c2c(F)cc3c(=O)c(C(=O)O)cn4c3c2OCN4C)CC1 [Example 40, 9-fluoro-3-methyl-7-oxo-10-[4-(2-oxo-n-propyl)-1-piperazinyl]-2,3-dihydro-7H-pyrido[3,2,1-ij]-1,3,4-benzoxadiazine-6-carboxylic acid] | 0.1 (≈ 0.247 µM) | 1.56 (≈ 3.86 µM) | 0.78 (≈ 1.93 µM) | 0.78 (≈ 1.93 µM) | 1.56 (≈ 3.86 µM) | 0.78 (≈ 1.93 µM) | 12.5 (≈ 30.9 µM) | 6.25 (≈ 15.5 µM) | 0.2 (≈ 0.495 µM) | 0.1 (≈ 0.247 µM) | 0.39 (≈ 0.964 µM) | 0.39 (≈ 0.964 µM) | 1.56 (≈ 3.86 µM) | 1.56 (≈ 3.86 µM) | 3.13 (≈ 7.74 µM) | 0.2 (≈ 0.495 µM) | 1.56 (≈ 3.86 µM) | 12.5 (≈ 30.9 µM) | 1.56 (≈ 3.86 µM) | 0.39 (≈ 0.964 µM) | MIC (Escherichia coli NR 2630): 0.2 µg/mL (≈ 0.495 µM)
3 | CNC1CCN(c2c(F)cc3c(=O)c(C(=O)O)cn4c3c2OCN4C)CC1 [Example 34] | 0.05 (≈ 0.133 µM) | 0.2 (≈ 0.531 µM) | 1.56 (≈ 4.14 µM) | 0.2 (≈ 0.531 µM) | 0.78 (≈ 2.07 µM) | 0.78 (≈ 2.07 µM) | 6.25 (≈ 16.6 µM) | 50 (≈ 133 µM) | 0.2 (≈ 0.531 µM) | 0.1 (≈ 0.266 µM) | 0.2 (≈ 0.531 µM) | 0.2 (≈ 0.531 µM) | 0.78 (≈ 2.07 µM) | 25 (≈ 66.4 µM) | 3.13 (≈ 8.32 µM) | 0.05 (≈ 0.133 µM) | 0.78 (≈ 2.07 µM) | 6.25 (≈ 16.6 µM) | 0.78 (≈ 2.07 µM) | 0.1 (≈ 0.266 µM) | MIC (Escherichia coli NR 2630): 0.1 µg/mL (≈ 0.266 µM)
4 | CN1COc2c(N3CCC(N)CC3)c(F)cc3c(=O)c(C(=O)O)cn1c23 [Example 33] | 0.2 (≈ 0.552 µM) | 0.2 (≈ 0.552 µM) | 1.56 (≈ 4.31 µM) | 0.2 (≈ 0.552 µM) | 0.78 (≈ 2.15 µM) | 0.78 (≈ 2.15 µM) | 3.13 (≈ 8.64 µM) | 50 (≈ 138 µM) | 0.2 (≈ 0.552 µM) | 0.05 (≈ 0.138 µM) | 0.2 (≈ 0.552 µM) | 0.2 (≈ 0.552 µM) | 0.78 (≈ 2.15 µM) | 25 (≈ 69 µM) | 1.56 (≈ 4.31 µM) | 0.05 (≈ 0.138 µM) | 0.39 (≈ 1.08 µM) | 6.25 (≈ 17.2 µM) | 0.78 (≈ 2.15 µM) | 0.1 (≈ 0.276 µM) | MIC (Escherichia coli NR 2630): 0.1 µg/mL (≈ 0.276 µM)
5 | CN1COc2c(N3CCC(O)CC3)c(F)cc3c(=O)c(C(=O)O)cn1c23 [Example 13, 9-fluoro-10-(4-hydroxy-1-piperidyl)-3-methyl-7-oxo-2,3-dihydro-7H-pyrido[3,2,1-ij]-1,3,4-benzoxadiazine-6-carboxylic acid] | ≤ 0.0008 | 0.1 (≈ 0.275 µM) | 0.05 (≈ 0.138 µM) | 0.025 (≈ 0.0688 µM) | 0.1 (≈ 0.275 µM) | 0.05 (≈ 0.138 µM) | 3.13 (≈ 8.61 µM) | 3.13 (≈ 8.61 µM) | 0.39 (≈ 1.07 µM) | 0.2 (≈ 0.55 µM) | 0.39 (≈ 1.07 µM) | 0.39 (≈ 1.07 µM) | 0.78 (≈ 2.15 µM) | 0.78 (≈ 2.15 µM) | 0.78 (≈ 2.15 µM) | 0.05 (≈ 0.138 µM) | 1.56 (≈ 4.29 µM) | 6.25 (≈ 17.2 µM) | 0.39 (≈ 1.07 µM) | 0.1 (≈ 0.275 µM) | MIC [19]: 0.1 µg/mL (≈ 0.275 µM)
6 | CN1COc2c(N3CCN(C(=O)CCC(=O)O)CC3)c(F)cc3c(=O)c(C(=O)O)cn1c23 [Example 49, 10-[4-(3-carboxypropionyl)-1-piperazinyl]-9-fluoro-3-methyl-7-oxo-2,3-dihydro-7H-pyrido[3,2,1-ij]-1,3,4-benzoxadiazine-6-carboxylic acid] | 3.13 (≈ 6.98 µM) | 6.25 (≈ 13.9 µM) | 12.5 (≈ 27.9 µM) | 6.25 (≈ 13.9 µM) | 12.5 (≈ 27.9 µM) | 12.5 (≈ 27.9 µM) | 100 (≈ 223 µM) | 100 (≈ 223 µM) | 0.39 (≈ 0.87 µM) | 0.39 (≈ 0.87 µM) | 0.78 (≈ 1.74 µM) | 1.56 (≈ 3.48 µM) | 1.56 (≈ 3.48 µM) | 50 (≈ 112 µM) | 3.13 (≈ 6.98 µM) | 0.78 (≈ 1.74 µM) | 3.13 (≈ 6.98 µM) | 50 (≈ 112 µM) | 3.13 (≈ 6.98 µM) | 0.39 (≈ 0.87 µM) | MIC (Escherichia coli NR 2630): 0.39 µg/mL (≈ 0.87 µM)
7 | CN1COc2c(N3CCN(CC(=O)c4ccccc4)CC3)c(F)cc3c(=O)c(C(=O)O)cn1c23 [Example 41] | 3.13 (≈ 6.71 µM) | 6.25 (≈ 13.4 µM) | 6.25 (≈ 13.4 µM) | 6.25 (≈ 13.4 µM) | 6.25 (≈ 13.4 µM) | 12.5 (≈ 26.8 µM) | 100 (≈ 214 µM) | 50 (≈ 107 µM) | 0.39 (≈ 0.836 µM) | 0.1 (≈ 0.214 µM) | 0.78 (≈ 1.67 µM) | 0.78 (≈ 1.67 µM) | 3.13 (≈ 6.71 µM) | 25 (≈ 53.6 µM) | 3.13 (≈ 6.71 µM) | 1.56 (≈ 3.34 µM) | 3.13 (≈ 6.71 µM) | 12.5 (≈ 26.8 µM) | 3.13 (≈ 6.71 µM) | 0.78 (≈ 1.67 µM) | MIC (Escherichia coli NR 2630): 0.39 µg/mL (≈ 0.836 µM)
